# Publication PMC3688963, “Biochemical Characterization of Hypothetical Proteins from Helicobacter pylori” (PLoS ONE, 2013)
# Molecular target: T1, HP1079 (Helicobacter pylori, UniProt O25711)
# T1 construct: gene HP_1079; native protein captured with GTP-coated nano-particles; His6 recombinant also made
# T1 sequence (O25711 1-370): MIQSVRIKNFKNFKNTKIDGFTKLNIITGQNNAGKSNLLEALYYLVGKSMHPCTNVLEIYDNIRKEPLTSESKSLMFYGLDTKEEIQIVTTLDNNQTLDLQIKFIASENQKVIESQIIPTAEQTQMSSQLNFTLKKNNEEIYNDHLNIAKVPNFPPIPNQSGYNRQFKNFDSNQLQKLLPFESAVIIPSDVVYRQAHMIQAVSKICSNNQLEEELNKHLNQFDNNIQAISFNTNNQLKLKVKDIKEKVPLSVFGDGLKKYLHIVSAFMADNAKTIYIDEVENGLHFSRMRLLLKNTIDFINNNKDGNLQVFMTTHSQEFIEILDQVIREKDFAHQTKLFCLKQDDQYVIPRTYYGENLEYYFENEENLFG
# Assay: phosphate release, malachite green
# Format: biochemical
# Details: 10 mM MgCl2, 10% glycerol, 100 mM sodium acetate pH 6.0, 30°C; read-out: Km (mM)^bc
# Description: phosphate release, malachite green on HP1079
structure (smiles),measurement,value
Nc1ncnc2c1ncn2[C@@H]1O[C@H](COP(=O)(O)OP(=O)(O)OP(=O)(O)O)[C@@H](O)[C@H]1O [ATP],Km,1.02 ± 0.05 mM
